In patent US10435364B2, “Compounds for use as bromodomain inhibitors” (Albert Ludwigs Universität Freiburg, priority 2013, dated 2019):
pKd: −log10 of the molar value. Like-named read-outs stand apart in the source and are kept apart here.

Experiments:
[1] = system: leukaemia cell lines; assay: NCI-60 DTP Human Tumour Cell Line Screen, leukaemia panel; type: cell-based; details: NCI-60 screen, 10 μM
[2] = system: HeLa; assay: Antiproliferative activity, HeLa cells; type: cell-based; details: at a high concentration of 50 μM
Procedure: BRD4 is a validated therapeutic target in NUT midline carcinoma and in acute myeloid and MLL-fusion leukaemia. The proliferation inhibition potential of the virtual screening hits in HL-60 and HeLa cell lines for the compound of formula (4) was assessed.

[3] = system: HL-60(TB); assay: NCI-60 DTP Human Tumour Cell Line Screen; type: cell-based; details: NCI-60 screen, 10 μM, leukaemia panel
[4] = system: mice (male and female); assay: Toxicity screening, single dose; type: in vivo
Excerpt: […]. All studied organs and tissues had the structure characteristics and relative body weights for normal animals.

[5] = system: T1, BET bromodomain family; assay: BROMOscan selectivity profile; type: binding, human
T1 construct: other: BROMOscan
Procedure: (§1) Bromodomain profiling was carried out on the basis of BROMOscan™. This platform accounted for the indirect determination of the dissociation constants between 19 bromodomains and the compound of formula (4), by binding competition against a reference immobilized ligand.
(§2) The target selectivity of the compound of formula (4) within the human BRD family was assessed by means of BROMOscan™. The binding of the compound to at least one representative protein of each BRD family was assessed.
Sphere size and colour indicate the binding affinity of the compound of formula (4) to the specific BRDs, as observed in the BROMOscan™ assay. Additionally, binding to PB1-BD4 was assessed by local ITC measurements. The dissociation constant (Kd) corresponding to each BRD in complex with the compound of formula (4) is indicated. […]

[6] = system: COLO 205; assay: NCI-60 DTP Human Tumour Cell Line Screen; type: cell-based; details: NCI-60 screen, 10 μM, colon cancer
[7] = biological target: T2, BRD4-BD1 (Homo sapiens, UniProt O60885); assay: Isothermal titration calorimetry (ITC), dissociation constant; type: binding
T2 construct: BRD4-BD1 was expressed and purified as described previously; made in house
Procedure: Data were obtained in discrete titration experiments with an injection volume of 12 μl per injection. Subsequently, the heats per injection were calculated as integrals and after normalization against the molar concentrations plotted against the molar ratio as implemented in Microcal Origin. Finally, data were fitted according to a single set of sites binding model with
[formula] as function to calculate the overall sum of heat of the titration and with
[formula] […] A correction term was included to compensate for displacement of volume of the sample cell in the course of subsequent injections according to the manufacturer's manual “ITC Data Analysis in Origin” (Microcal).
The dissociation constant has molar units which correspond to the concentration of ligand at which the binding site on a particular protein is half occupied, i.e. the concentration of the ligand at which the concentration of protein with ligand bound equals the concentration of protein with no ligand bound. The smaller the dissociation constant, the higher the affinity between ligand and protein.

[8] = biological target: T3, BRD3(2) (Homo sapiens, UniProt Q15059); assay: BROMOscan; type: binding; details: BROMOscan
T3 construct: T7 phage strains displaying bromodomains; host or cells: T7 phage display in E. coli host derived from BL21
T3 sequence (Q15059 306-415 limits assumed): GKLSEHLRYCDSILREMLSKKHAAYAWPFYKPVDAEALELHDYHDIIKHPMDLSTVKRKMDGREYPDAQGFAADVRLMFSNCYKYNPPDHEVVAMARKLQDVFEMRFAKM

[9] = biological target: T4, BRD3(1) (Homo sapiens, UniProt Q15059); assay: BROMOscan; type: binding; details: BROMOscan
T4 construct: T7 phage strains displaying bromodomains; host or cells: T7 phage display in E. coli host derived from BL21
T4 sequence (Q15059 34-140 limits assumed): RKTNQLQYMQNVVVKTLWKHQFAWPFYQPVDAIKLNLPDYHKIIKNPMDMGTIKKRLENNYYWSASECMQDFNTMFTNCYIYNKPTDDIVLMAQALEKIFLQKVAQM

[10] = biological target: T5, CREBBP (Homo sapiens, UniProt Q92793); assay: BROMOscan; type: binding; details: BROMOscan; read-out: binding affinity to CREBBP
T5 construct: T7 phage strains displaying bromodomains; host or cells: T7 phage display in E. coli host derived from BL21
T5 sequence (Q92793 1085-1192 limits assumed): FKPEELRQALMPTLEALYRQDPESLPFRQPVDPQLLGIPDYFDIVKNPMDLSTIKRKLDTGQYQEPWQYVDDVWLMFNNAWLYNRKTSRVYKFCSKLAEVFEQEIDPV
Procedure: as §1, §2
(§3) Bromodomain profiling was carried out on the basis of BROMOscan™, which is a leading platform for identifying small molecule bromodomain inhibitors. BROMOscan™ employs a proprietary ligand binding site-directed competition assay to quantitatively measure interactions between test compounds and bromodomains. The reliable assay panel is suitable for high-throughput screening and delivers quantitative ligand binding data.
(§4) Compounds that bind the bromodomain prevent its binding to the immobilized ligand thus reducing the amount of protein captured. […] Hits are identified by measuring the amount of bromodomain captured in test versus control samples.
(§5) Bromodomain assays: T7 phage strains displaying bromodomains were grown in parallel in 24-well blocks in an E. coli host derived from the BL21 strain. E. coli were grown to log-phase and infected with T7 phage from a frozen stock (multiplicity of infection=0.4) and incubated with shaking at 32° C. until lysis (90-150 minutes). The lysates were centrifuged (5,000×g) and filtered (0.2 μm) to remove cell debris. […] The bound beads were blocked with excess biotin and washed with blocking buffer (SeaBlock (Pierce), 1% BSA, 0.05% Tween 20, 1 mM DTT) to remove unbound ligand and to reduce non-specific phage binding. […] Test compounds were prepared as 1000× stocks in 100% DMSO and subsequently diluted 1:25 in mono ethylene glycol (MEG). The compounds were then diluted directly into the assays such that the final concentrations of DMSO and MEG were 0.1% and 2.4%, respectively. All reactions were performed in polypropylene 384-well plates in a final volume of 0.02 ml. […] The bromodomain concentration in the eluates was measured by qPCR.
(§6) The % Ctrl values were determined as follows: % Ctrl=[(test compound signal-positive control signal)/(negative control signal-positive control signal)]×100
(§7) For 7 bromodomains other than the bromodomains from the BET family dissociation constants Kd were determined and the results are given in Table 3.

[11] = biological target: T6, EP300 (Homo sapiens, UniProt Q09472); assay: BROMOscan; type: binding; details: BROMOscan; read-out: binding affinity to EP300
T6 construct: T7 phage strains displaying bromodomains; host or cells: T7 phage display in E. coli host derived from BL21
T6 sequence (Q09472 1049-1156 limits assumed): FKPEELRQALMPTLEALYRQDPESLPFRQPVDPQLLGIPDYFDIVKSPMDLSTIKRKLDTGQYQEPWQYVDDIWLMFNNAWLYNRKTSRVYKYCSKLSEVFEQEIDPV
Procedure: as §1, §2, §3, §4, §5, §6, §7

[12] = system: SR; assay: NCI-60 DTP Human Tumour Cell Line Screen; type: cell-based; details: NCI-60 screen, 10 μM, leukaemia panel
[13] = system: OVCAR-5; assay: NCI-60 DTP Human Tumour Cell Line Screen; type: cell-based; details: NCI-60 screen, 10 μM, ovarian cancer
[14] = biological target: T7, BRD4(1) (Homo sapiens, UniProt O60885); assay: BROMOscan; type: binding; details: BROMOscan, n=2; read-out: dissociation constant (Kd) in complex with BRD4-BD1
T7 construct: T7 phage strains displaying bromodomains; host or cells: T7 phage display in E. coli host derived from BL21

[15] = biological target: T8, BRD2(1) (Homo sapiens, UniProt P25440); assay: BROMOscan; type: binding; details: BROMOscan
T8 construct: T7 phage strains displaying bromodomains; host or cells: T7 phage display in E. coli host derived from BL21
T8 sequence (P25440 74-180 limits assumed): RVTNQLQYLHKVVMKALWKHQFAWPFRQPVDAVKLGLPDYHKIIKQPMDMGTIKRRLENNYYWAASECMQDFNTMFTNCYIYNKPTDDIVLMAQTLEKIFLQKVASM

CCc1c(C(=O)Nc2cc(S(=O)(=O)N(CC)CC)ccc2O)[nH]c(C)c1C(C)=O [compound of formula (4)]
activity against the leukaemia cell lines [1]: potent and selective activity | antiproliferative activity against HeLa [2]: no antiproliferative activity | sensitivity in the cell line screen (growth inhibition) [3]: most sensitive | LD50 ([4]; mice (male and female), single dose): higher than 2000 mg/kg of body weight | signs of toxicity ([4]; mouse, in vivo, 2000 mg/kg): did not induce any signs of toxicity | binding specificity within the human BRD family [5]: bind specifically to the BET bromodomain family | sensitivity in the cell line screen (growth inhibition) [6]: most resistant | pKd ([7]; ITC, 25° C., read-out: dissociation constant Kd for BRD4-BD1): 6.52 | Kd ([7]; Table 1, target not given, values of formula (4) and (3) match ITC Kd for BRD4-BD1, read-out: pKd (converted)): 316 nM | affinity to BRD3 (both BRDs), BD2 [8]: nM range | affinity to BRD3 (both BRDs), BD1 [9]: nM range | pKd [10]: ~5.46 | pKd [11]: ~5.46 | sensitivity in the cell line screen (growth inhibition) [12]: most sensitive | sensitivity in the cell line screen (growth inhibition) [13]: most resistant | pKd [14]: 6.80 | affinity to BRD2-BD1 [15]: nM range
